# Assay results: patent publication US9040530B2, “1,2,4-triazine-6-carboxamide kinase inhibitors” (Portola Pharmaceuticals, Inc., priority 2012, dated 2015)
# pIC50: −log10 of the molar value.
# Target: T1, full length active recombinant SYK enzyme (Homo sapiens, UniProt P43405)
# T1 construct: full length active recombinant SYK enzyme (Millipore, Calif.); purchased Millipore
# Test: Inhibition of Syk tyrosine phosphorylation activity (LANCE TR-FRET kinase assay)
# Format: biochemical
# Settings: 1 nM active SYK enzyme, 550 nM SYK-substrate, 100 μM ATP, 1 hour at room temperature
row,SMILES,pIC50
1,"NC(=O)c1nnc(N[C@@H]2CCOC[C@@H]2N)nc1Nc1cccc(-n2nccn2)c1 [Example 85, 5-((3-(2H-1,2,3-triazol-2-yl)phenyl)amino)-3-(((3R,4R)-3-aminotetrahydro-2H-pyran-4-yl)amino)-1,2,4-triazine-6-carboxamide]",8.00 to 9.00
2,"CC[C@@H](Nc1nnc(C(N)=O)c(Nc2cccc(-n3nccn3)c2)n1)C(N)=O [Example 86, (R)-5-((3-(2H-1,2,3-triazol-2-yl)phenyl)amino)-3-((1-amino-1-oxobutan-2-yl)amino)-1,2,4-triazine-6-carboxamide]",6.00 to 7.00
3,"CC(C)[C@@H](Nc1nnc(C(N)=O)c(Nc2cccc3c2ccn3C)n1)C(N)=O [Example 87, (R)-3-((1-amino-3-methyl-1-oxobutan-2-yl)amino)-5-((1-methyl-1H-indol-4-yl)amino)-1,2,4-triazine-6-carboxamide]",7.00 to 8.00
4,"CC(C)C[C@@H](Nc1nnc(C(N)=O)c(Nc2cccc3c2ccn3C)n1)C(N)=O [Example 88, (R)-3-((1-amino-4-methyl-1-oxopentan-2-yl)amino)-5-((1-methyl-1H-indol-4-yl)amino)-1,2,4-triazine-6-carboxamide]",8.00 to 9.00
5,"Cn1ccc2c(Nc3nc(NCC4CCC(=O)N4)nnc3C(N)=O)cccc21 (centres unmarked) [Example 89, 5-((1-methyl-1H-indol-4-yl)amino)-3-(((5-oxopyrrolidin-2-yl)methyl)amino)-1,2,4-triazine-6-carboxamide]",6.00 to 7.00
6,"Cn1ccc2c(Nc3nc(N[C@@H]4CCNC4)nnc3C(N)=O)cccc21 [Example 90, (R)-5-((1-methyl-1H-indol-4-yl)amino)-3-(pyrrolidin-3-ylamino)-1,2,4-triazine-6-carboxamide]",8.00 to 9.00
7,"Cn1ccc2c(Nc3nc(NCc4cc[nH]n4)nnc3C(N)=O)cccc21 [Example 91, 3-(((1H-pyrazol-3-yl)methyl)amino)-5-((1-methyl-1H-indol-4-yl)amino)-1,2,4-triazine-6-carboxamide]",6.00 to 7.00
8,"NC(=O)c1nnc(N)nc1Nc1cccc(-c2ncccn2)c1 [Example 92, 3-amino-5-((3-(pyrimidin-2-yl)phenyl)amino)-1,2,4-triazine-6-carboxamide]",< 6.00
9,"Cn1ccc2c(Nc3nc(N[C@@H](C(N)=O)C(C)(C)C)nnc3C(N)=O)cccc21 [Example 93, (R)-3-((1-amino-3,3-dimethyl-1-oxobutan-2-yl)amino)-5-((1-methyl-1H-indol-4-yl)amino)-1,2,4-triazine-6-carboxamide]",6.00 to 7.00
10,"Cn1ccc2c(Nc3nc(N[C@@H]4CCCC(F)(F)[C@@H]4N)nnc3C(N)=O)cccc21 [Example 94, 3-(((1R,2R)-2-amino-3,3-difluorocyclohexyl)amino)-5-((1-methyl-1H-indol-4-yl)amino)-1,2,4-triazine-6-carboxamide]",8.00 to 9.00
11,"NC(=O)c1nnc(N[C@@H]2CCOC[C@@H]2N)nc1Nc1ccccc1 [Example 95, 3-(((3R,4R)-3-aminotetrahydro-2H-pyran-4-yl)amino)-5-(phenylamino)-1,2,4-triazine-6-carboxamide]",7.00 to 8.00
12,"NC(=O)c1nnc(N[C@@H]2CCCC(F)(F)[C@@H]2N)nc1Nc1ccccc1 [Example 96, 3-(((1R,2R)-2-amino-3,3-difluorocyclohexyl)amino)-5-(phenylamino)-1,2,4-triazine-6-carboxamide]",7.00 to 8.00
13,"NC(=O)c1nnc(N[C@@H]2CCCC[C@@H]2N)nc1Nc1ccc(-n2nccn2)cc1 [Example 97, 5-((4-(2H-1,2,3-triazol-2-yl)phenyl)amino)-3-(((1R,2S)-2-aminocyclohexyl)amino)-1,2,4-triazine-6-carboxamide]",7.00 to 8.00
14,"CC[C@@H](Nc1nnc(C(N)=O)c(Nc2ccc(-n3nccn3)cc2)n1)C(N)=O [Example 98, (R)-5-((4-(2H-1,2,3-triazol-2-yl)phenyl)amino)-3-((1-amino-1-oxobutan-2-yl)amino)-1,2,4-triazine-6-carboxamide]",7.00 to 8.00
15,"CC[C@@H](Nc1nnc(C(N)=O)c(Nc2ccccc2)n1)C(N)=O [Example 99, (R)-3-((1-amino-1-oxobutan-2-yl)amino)-5-(phenylamino)-1,2,4-triazine-6-carboxamide]",6.00 to 7.00
16,"NC(=O)c1nnc(N[C@@H]2CCCC[C@@H]2N)nc1Nc1cccnc1 [Example 100, 3-(((1R,2S)-2-aminocyclohexyl)amino)-5-(pyridin-3-ylamino)-1,2,4-triazine-6-carboxamide]",7.00 to 8.00
17,"Cc1cc(Nc2nc(N[C@@H]3CCCC[C@@H]3N)nnc2C(N)=O)sn1 [Example 101, 3-(((1R,2S)-2-aminocyclohexyl)amino)-5-((3-methylisothiazol-5-yl)amino)-1,2,4-triazine-6-carboxamide]",7.00 to 8.00
18,"CC[C@@H](Nc1nnc(C(N)=O)c(Nc2ccc3cc[nH]c3c2)n1)C(N)=O [Example 102, (R)-5-((1H-indol-6-yl)amino)-3-((1-amino-1-oxobutan-2-yl)amino)-1,2,4-triazine-6-carboxamide]",8.00 to 9.00

row,SMILES,pIC50
1,"CC(C)C[C@@H](Nc1nnc(C(N)=O)c(Nc2ccc3cc[nH]c3c2)n1)C(N)=O [Example 103, (R)-5-((1H-indol-6-yl)amino)-3-((1-amino-4-methyl-1-oxopentan-2-yl)amino)-1,2,4-triazine-6-carboxamide]",8.00 to 9.00
2,"Cn1ncc2c(Nc3nc(N[C@@H]4CCCC[C@@H]4N)nnc3C(N)=O)ccnc21 [Example 104, 3-(((1R,2S)-2-aminocyclohexyl)amino)-5-((1-methyl-1H-pyrazolo[3,4-b]pyridin-4-yl)amino)-1,2,4-triazine-6-carboxamide]",7.00 to 8.00
3,"Cn1ncc2c(Nc3nc(N[C@@H]4CCCC[C@@H]4N)nnc3C(N)=O)cccc21 [Example 105, 3-(((1R,2S)-2-aminocyclohexyl)amino)-5-((1-methyl-1H-indazol-4-yl)amino)-1,2,4-triazine-6-carboxamide]",8.00 to 9.00
4,"NC(=O)c1nnc(N[C@@H]2CCCC[C@@H]2N)nc1Nc1ccc(-n2cncn2)cc1 [Example 106, 5-((4-(1H-1,2,4-triazol-1-yl)phenyl)amino)-3-(((1R,2S)-2-aminocyclohexyl)amino)-1,2,4-triazine-6-carboxamide]",7.00 to 8.00
5,"CC[C@@H](Nc1nnc(C(N)=O)c(Nc2cccc3c2cnn3C)n1)C(N)=O [Example 107, (R)-3-((1-amino-1-oxobutan-2-yl)amino)-5-((1-methyl-1H-indazol-4-yl)amino)-1,2,4-triazine-6-carboxamide]",7.00 to 8.00
6,"CC(C)C[C@@H](Nc1nnc(C(N)=O)c(Nc2cccc3c2cnn3C)n1)C(N)=O [Example 108, (R)-3-((1-amino-4-methyl-1-oxopentan-2-yl)amino)-5-((1-methyl-1H-indazol-4-yl)amino)-1,2,4-triazine-6-carboxamide]",7.00 to 8.00
7,"Cn1ncc2cc(Nc3nc(N[C@@H]4CCCC[C@@H]4N)nnc3C(N)=O)ccc21 [Example 109, 3-(((1R,2S)-2-aminocyclohexyl)amino)-5-((1-methyl-1H-indazol-5-yl)amino)-1,2,4-triazine-6-carboxamide]",8.00 to 9.00
8,"CC[C@@H](Nc1nnc(C(N)=O)c(Nc2ccc3c(cnn3C)c2)n1)C(N)=O [Example 110, (R)-3-((1-amino-1-oxobutan-2-yl)amino)-5-((1-methyl-1H-indazol-5-yl)amino)-1,2,4-triazine-6-carboxamide]",7.00 to 8.00
9,"CC(C)C[C@@H](Nc1nnc(C(N)=O)c(Nc2ccc3c(cnn3C)c2)n1)C(N)=O [Example 111, (R)-3-((1-amino-4-methyl-1-oxopentan-2-yl)amino)-5-((1-methyl-1H-indazol-5-yl)amino)-1,2,4-triazine-6-carboxamide]",8.00 to 9.00
10,"CC[C@@H](Nc1nnc(C(N)=O)c(Nc2ccc(OC)c(C(F)(F)F)c2)n1)C(N)=O [Example 112, (R)-3-((1-amino-1-oxobutan-2-yl)amino)-5-((4-methoxy-3-(trifluoromethyl)phenyl)amino)-1,2,4-triazine-6-carboxamide]",6.00 to 7.00
11,"COc1ccc(Nc2nc(N[C@H](CC(C)C)C(N)=O)nnc2C(N)=O)cc1C(F)(F)F [Example 113, (R)-3-((1-amino-4-methyl-1-oxopentan-2-yl)amino)-5-((4-methoxy-3-(trifluoromethyl)phenyl)amino)-1,2,4-triazine-6-carboxamide]",7.00 to 8.00
12,"COc1ccc(Nc2nc(N[C@@H]3CCCC[C@@H]3N)nnc2C(N)=O)cc1C(F)(F)F [Example 114, 3-(((1R,2S)-2-aminocyclohexyl)amino)-5-((4-methoxy-3-(trifluoromethyl)phenyl)amino)-1,2,4-triazine-6-carboxamide]",8.00 to 9.00
13,"N#Cc1ccccc1Nc1nc(N[C@@H]2CCCC[C@@H]2N)nnc1C(N)=O [Example 115, 3-(((1R,2S)-2-aminocyclohexyl)amino)-5-((2-cyanophenyl)amino)-1,2,4-triazine-6-carboxamide]",6.00 to 7.00
14,"N#Cc1ccc(Nc2nc(N[C@@H]3CCCC[C@@H]3N)nnc2C(N)=O)cc1F [Example 116, 3-(((1R,2S)-2-aminocyclohexyl)amino)-5-((4-cyano-3-fluorophenyl)amino)-1,2,4-triazine-6-carboxamide]",7.00 to 8.00
15,"Cn1ncc2c(Nc3nc(N[C@@H]4CCCC(F)(F)[C@@H]4N)nnc3C(N)=O)cccc21 [Example 117, 3-(((1R,2R)-2-amino-3,3-difluorocyclohexyl)amino)-5-((1-methyl-1H-indazol-4-yl)amino)-1,2,4-triazine-6-carboxamide]",7.00 to 8.00
16,"Cn1ccc2cc(Nc3nc(N[C@@H]4CCCC[C@@H]4N)nnc3C(N)=O)ccc21 [Example 118, 3-(((1R,2S)-2-aminocyclohexyl)amino)-5-((1-methyl-1H-indol-5-yl)amino)-1,2,4-triazine-6-carboxamide]",8.00 to 9.00
17,"Cn1ccc2ccc(Nc3nc(N[C@@H]4CCCC[C@@H]4N)nnc3C(N)=O)cc21 [Example 119, 3-(((1R,2S)-2-aminocyclohexyl)amino)-5-((1-methyl-1H-indol-6-yl)amino)-1,2,4-triazine-6-carboxamide]",8.00 to 9.00
